# Earlier results, collected in article PMC10216446 (Biomolecules, 2023).
# Experiments:
# IP6K = settings: reported values; read-out: reported IC50 values for TNP
# [1] = stated as a known limitation of TNP, no reference given
# human cytochrome P450s = tested on: human cytochrome P450s; design: method as in PMID 27689003
smiles,measurement,setting,value
"O=[N+]([O-])c1ccc(CNc2nc(NCc3cccc(C(F)(F)F)c3)nc3nc[nH]c23)cc1 [TNP, N2-(m-trifluorobenzyl), N6-(p-nitrobenzyl)purine]",IC50,IP6K,250 to 1000 nM
same,aqueous solubility,[1],poor
same,inhibition of human cytochrome P450s,human cytochrome P450s,potent inhibitor of human cytochrome P450s
